Measurements: patent publication US11802131B2, “Glutarimides for medical treatment” (C4 Therapeutics, Inc., priority 2017, dated 2023)

Each molecule was assayed against hCereblon(M1-L442)_hDDB1(M1-H1140) (Homo sapiens (Human), UniProt Q96SW2) (assay: Fluorescence direct binding protocol (tryptophan fluorescence titration)). Conditions: 20° C., excited at 280 nm, recorded at 340 nm, assay buffer 50 mM Hepes 7.4 200 mM NaCl; read-out: Fluorescence h-Cereblon_DDB1 Mean Kd_EQ.
Protocol: Fluorescence Direct Binding Protocol
Determination of the affinities of compounds to protein containing one or more tryptophan is measurable by monitoring the fluorescence emission in direct mode. The measurements depending on the protein available amounts are performed either manually in a cuvette on ISS-PC1 photon counting spectrofluorometer or automatically in well plates on a fluorescence plate reader device. Fluorescence titrations are performed at 20° C. in the chosen binding assay buffer by using a defined constant protein concentration against ligand concentration variations. Small aliquots of known ligand concentration solubilized in DMSO were added and the fluorescence, excited at 280 nm, was recorded at 340 nm. The fluorescence intensity was corrected for protein dilution and for the filter effect (Birdsall et al.^72).
1) Optimization of measurement parameters to minimize protein consumption and to minimize the dilution effect and the DMSO content
2) Titration measurements of the protein against ligand by at least 12 titration steps to obtain a good s-curve fit
3) Repeat the same titration measurements with the ligand alone to enable correction
4) Check the stability of the protein once by titration against DMSO alone
5) Determination of the molar extinction coefficients of the ligand at 280 and 340 nm with help of an UV-spectrophotometer
6) Use Excel template for the correction of the measured raw data
7) Use GraphPad Prism software for the quadratic binding fit and the KD evaluation.

Chain of hCereblon(M1-L442)_hDDB1(M1-H1140) (Q96SW2 whole entry): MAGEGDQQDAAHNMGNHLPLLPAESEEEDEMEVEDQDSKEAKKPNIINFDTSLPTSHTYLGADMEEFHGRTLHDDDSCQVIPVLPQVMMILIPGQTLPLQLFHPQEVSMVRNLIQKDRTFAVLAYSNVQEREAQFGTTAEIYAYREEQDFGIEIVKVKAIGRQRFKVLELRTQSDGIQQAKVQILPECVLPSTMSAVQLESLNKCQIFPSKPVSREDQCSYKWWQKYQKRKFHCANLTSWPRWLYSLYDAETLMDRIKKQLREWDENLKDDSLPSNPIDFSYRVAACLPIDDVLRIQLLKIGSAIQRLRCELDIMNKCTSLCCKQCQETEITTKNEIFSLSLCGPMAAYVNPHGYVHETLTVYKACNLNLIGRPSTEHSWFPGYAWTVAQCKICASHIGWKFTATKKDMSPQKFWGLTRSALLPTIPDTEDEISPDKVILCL
Chain of hCereblon(M1-L442)_hDDB1(M1-H1140) (Q16531 whole entry partner): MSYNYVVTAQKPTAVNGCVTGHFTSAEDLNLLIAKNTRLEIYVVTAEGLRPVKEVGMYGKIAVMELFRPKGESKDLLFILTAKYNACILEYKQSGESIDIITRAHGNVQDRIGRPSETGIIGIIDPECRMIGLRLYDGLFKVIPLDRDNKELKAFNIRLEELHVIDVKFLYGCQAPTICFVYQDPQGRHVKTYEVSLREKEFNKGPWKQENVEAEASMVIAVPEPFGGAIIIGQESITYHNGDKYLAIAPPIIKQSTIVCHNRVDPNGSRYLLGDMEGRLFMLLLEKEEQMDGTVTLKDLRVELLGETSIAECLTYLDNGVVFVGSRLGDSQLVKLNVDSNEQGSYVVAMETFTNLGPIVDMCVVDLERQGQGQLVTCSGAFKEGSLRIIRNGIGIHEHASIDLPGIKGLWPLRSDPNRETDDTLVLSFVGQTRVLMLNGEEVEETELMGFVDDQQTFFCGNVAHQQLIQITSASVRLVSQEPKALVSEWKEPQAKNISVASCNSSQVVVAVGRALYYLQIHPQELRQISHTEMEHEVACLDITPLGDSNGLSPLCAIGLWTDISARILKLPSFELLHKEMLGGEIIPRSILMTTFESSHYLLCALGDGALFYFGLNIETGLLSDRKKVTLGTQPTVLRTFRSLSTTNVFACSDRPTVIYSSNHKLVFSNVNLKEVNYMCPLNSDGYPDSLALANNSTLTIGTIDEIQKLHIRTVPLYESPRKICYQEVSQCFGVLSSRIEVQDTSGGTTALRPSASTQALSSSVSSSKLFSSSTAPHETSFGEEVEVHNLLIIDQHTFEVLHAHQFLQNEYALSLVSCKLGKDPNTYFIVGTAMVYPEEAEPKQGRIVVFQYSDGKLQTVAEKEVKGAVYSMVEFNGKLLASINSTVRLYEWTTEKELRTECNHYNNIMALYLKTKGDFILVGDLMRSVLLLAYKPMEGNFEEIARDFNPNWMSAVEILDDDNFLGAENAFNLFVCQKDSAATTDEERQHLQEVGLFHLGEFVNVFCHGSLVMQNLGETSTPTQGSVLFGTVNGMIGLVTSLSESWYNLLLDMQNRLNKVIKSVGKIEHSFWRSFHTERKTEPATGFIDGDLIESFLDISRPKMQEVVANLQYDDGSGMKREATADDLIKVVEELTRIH

Question: Which Kd does the source give for `O=C1CC[C@@H](NC(=O)C2CCc3ncccc32)C(=O)N1` (stereo partly drawn) [Example 20, N-((R)-2,6-Dioxopiperidin-3-yl)-6,7-dihydro-5H-cyclopenta[b]pyridine-5-carboxamide] here?
Answer: The Kd was 3 nM.

Question: With `O=C1CC[C@H](NC(=O)c2coc3ccccc23)C(=O)N1` [Example 21, (S)-N-(2,6-Dioxopiperidin-3-yl)benzofuran-3-carboxamide] as the molecule, how does the Kd read?
Answer: Its Kd is 1 nM.

Question: `O=C1CC[C@H](NC(=O)C2CCc3cccnc32)C(=O)N1` (stereo partly drawn) [Example 23, N-((S)-2,6-Dioxopiperidin-3-yl)-6,7-dihydro-5H-cyclopenta[b]pyridine-7-carboxamide] was tested. Which Kd did it give?
Answer: Its Kd is 25 nM.

Question: `O=C1CC[C@@H](NC(=O)c2csc3ccccc23)C(=O)N1` [Example 24, (R)-N-(2,6-Dioxopiperidin-3-yl)benzo[b]thiophene-3-carboxamide] was tested. Which Kd did it give?
Answer: The Kd was 9 nM.

Question: `O=C1CC[C@H](NC(=O)c2csc3ccccc23)C(=O)N1` [Example 25, (S)-N-(2,6-Dioxopiperidin-3-yl)benzo[b]thiophene-3-carboxamide] was tested. Which Kd did it give?
Answer: The Kd was 23 nM.

Question: For `O=C1CC[C@@H](NC(=O)[C@H]2CCCc3ccccc32)C(=O)N1` [Example 26, (S)-N-((R)-2,6-Dioxopiperidin-3-yl)-1,2,3,4-tetrahydronaphthalene-1-carboxamide], which Kd is on record?
Answer: Its Kd is 6 nM.

Question: For `O=C1CC[C@H](NC(=O)[C@H]2CCCc3ccccc32)C(=O)N1` [Example 27, (S)-N-((S)-2,6-Dioxopiperidin-3-yl)-1,2,3,4-tetrahydronaphthalene-1-carboxamide], which Kd is on record?
Answer: Its Kd is 3 nM.

Question: How did the Kd turn out when `O=C1CC[C@H](NC(=O)N2CCCc3ccccc32)C(=O)N1` [Example 28, (S)-N-(2,6-Dioxopiperidin-3-yl)-3,4-dihydroquinoline-1(2H)-carboxamide] was run?
Answer: The Kd was 4 nM.

Question: How did the Kd turn out when `O=C1CC[C@H](NC(=O)N2CCc3cccnc32)C(=O)N1` [Example 29, (S)-N-(2,6-Dioxopiperidin-3-yl)-2,3-dihydro-1H-pyrrolo[2,3-b]pyridine-1-carboxamide] was run?
Answer: The Kd was less than 1 nM.

Question: Which Kd does the source give for `O=C1CC[C@H](NC(=O)N2CCCc3cccnc32)C(=O)N1` [Example 30, (S)-N-(2,6-Dioxopiperidin-3-yl)-3,4-dihydro-1,8-naphthyridine-1 (2H)-carboxamide] here?
Answer: Its Kd is 4 nM.

Question: Which Kd does the source give for `O=C1CC[C@H](NC(=O)C2CCOc3ccccc32)C(=O)N1` (stereo partly drawn) [Example 31, N-[(3S)-2,6-Dioxo-3-piperidyl]chromane-4-carboxamide] here?
Answer: The Kd was 5 nM.

Question: Which Kd does the source give for `O=C1CC[C@H](NC(=O)[C@H]2CCNc3ccccc32)C(=O)N1` [Example 32, (4S)-N-[(3S)-2,6-Dioxopiperidin-3-yl]-1,2,3,4-tetrahydroquinoline-4-carboxamide] here?
Answer: The Kd was less than 1 nM.

Question: For `O=C1CC[C@H](NC(=O)[C@@H]2CCNc3ccccc32)C(=O)N1` [Example 33, (4R)-N-[(3S)-2,6-Dioxopiperidin-3-yl]-1,2,3,4-tetrahydroquinoline-4-carboxamide], which Kd is on record?
Answer: Its Kd is 6 nM.

Question: `O=C1CC[C@@H](NC(=O)c2coc3ccccc23)C(=O)N1` [Example 34, (R)-N-(2,6-Dioxopiperidin-3-yl)benzofuran-3-carboxamide] was tested. Which Kd did it give?
Answer: The Kd was 26 nM.

Question: How did the Kd turn out when `O=C1CC[C@@H](NC(=O)N2CCCc3ccccc32)C(=O)N1` [Example 35, (R)-N-(2,6-Dioxopiperidin-3-yl)-3,4-dihydroquinoline-1(2H)-carboxamide] was run?
Answer: Its Kd is 19 nM.

Question: `O=C1CC[C@@H](NC(=O)N2CCc3cccnc32)C(=O)N1` [Example 36, (R)-N-(2,6-Dioxopiperidin-3-yl)-2,3-dihydro-1H-pyrrolo[2,3-b]pyridine-1-carboxamide] was tested. Which Kd did it give?
Answer: The Kd was 10 nM.

Question: Which Kd does the source give for `O=C1CC[C@H](NC(=O)C2CCNc3ccccc32)C(=O)N1` (stereo partly drawn) [Example 37, N-[(3S)-2,6-Dioxo-3-piperidyl]-1,2,3,4-tetrahydroquinoline-4-carboxamide] here?
Answer: The Kd was less than 1 nM.

Question: How did the Kd turn out when `CN1CCC(C(=O)N[C@H]2CCC(=O)NC2=O)c2ccccc21` (stereo partly drawn) [Example 38, N-[(3S)-2,6-Dioxo-3-piperidyl]-1-methyl-3,4-dihydro-2H-quinoline-4-carboxamide] was run?
Answer: Its Kd is 5 nM.

Question: With `O=C1CC[C@@H](NC(=O)C2CCNc3ccccc32)C(=O)N1` (stereo partly drawn) [Example 39, N-[(3R)-2,6-Dioxo-3-piperidyl]-1,2,3,4-tetrahydroquinoline-4-carboxamide] as the molecule, how does the Kd read?
Answer: The Kd was 19 nM.

Question: Which Kd does the source give for `CN1CCC(C(=O)N[C@@H]2CCC(=O)NC2=O)c2ccccc21` (stereo partly drawn) [Example 40, N-[(3R)-2,6-Dioxo-3-piperidyl]-1-methyl-3,4-dihydro-2H-quinoline-4-carboxamide] here?
Answer: The Kd was 68 nM.

Question: With `O=C1CC[C@@H](NC(=O)C2CCOc3ccccc32)C(=O)N1` (stereo partly drawn) [Example 41, N-[(3R)-2,6-Dioxo-3-piperidyl]chromane-4-carboxamide] as the molecule, how does the Kd read?
Answer: The Kd was 14 nM.

Question: How did the Kd turn out when `COC(=O)c1ccc2c(C(=O)N[C@H]3CCC(=O)NC3=O)c[nH]c2c1` [Example 42, Methyl (S)-3-((2,6-dioxopiperidin-3-yl)carbamoyl)-1H-indole-6-carboxylate] was run?
Answer: Its Kd is 18 nM.

Question: For `O=C1CC[C@@H](NC(=O)[C@H]2CCNc3ccccc32)C(=O)N1` [Example 43, (4S)-N-[(3R)-2,6-Dioxopiperidin-3-yl]-1,2,3,4-tetrahydroquinoline-4-carboxamide], which Kd is on record?
Answer: The Kd was less than 1 nM.

Question: `O=C1CC[C@@H](NC(=O)[C@@H]2CCNc3ccccc32)C(=O)N1` [Example 44, (4R)-N-[(3R)-2,6-Dioxopiperidin-3-yl]-1,2,3,4-tetrahydroquinoline-4-carboxamide] was tested. Which Kd did it give?
Answer: The Kd was 12 nM.

Question: `O=C1CC[C@@H](NC(=O)[C@@H]2CCCc3ccccc32)C(=O)N1` [Example 45, (1R)-N-[(3R)-2,6-Dioxopiperidin-3-yl]-1,2,3,4-tetrahydronaphthalene-1-carboxamide] was tested. Which Kd did it give?
Answer: The Kd was 4 nM.

Question: For `O=C1CC[C@H](NC(=O)[C@@H]2CCCc3ccccc32)C(=O)N1` [Example 46, (1R)-N-[(3S)-2,6-Dioxopiperidin-3-yl]-1,2,3,4-tetrahydronaphthalene-1-carboxamide], which Kd is on record?
Answer: Its Kd is 39 nM.

Question: `O=C1CC[C@H](NC(=O)c2cnn3ccccc23)C(=O)N1` [Example 47, (S)-N-(2,6-Dioxopiperidin-3-yl)pyrazolo[1,5-a]pyridine-3-carboxamide] was tested. Which Kd did it give?
Answer: The Kd was less than 1 nM.

Question: Which Kd does the source give for `O=C1CC[C@@H](NC(=O)c2cnn3ccccc23)C(=O)N1` [Example 48, (R)-N-(2,6-Dioxopiperidin-3-yl)pyrazolo[1,5-a]pyridine-3-carboxamide] here?
Answer: The Kd was less than 1 nM.

Question: For `O=C1CC[C@@H](NC(=O)c2n[nH]c3ccccc23)C(=O)N1` [Example 49, (R)-N-(2,6-Dioxopiperidin-3-yl)-1H-indazole-3-carboxamide], which Kd is on record?
Answer: Its Kd is less than 1 nM.

Question: `O=C1CC[C@H](NC(=O)c2ncc3ccccn23)C(=O)N1` [Example 50, (S)-N-(2,6-Dioxopiperidin-3-yl)imidazo[1,5-a]pyridine-3-carboxamide] was tested. Which Kd did it give?
Answer: The Kd was 4 nM.

Question: Which Kd does the source give for `O=C1CC[C@@H](NC(=O)c2ncc3ccccn23)C(=O)N1` [Example 51, (R)-N-(2,6-Dioxopiperidin-3-yl)imidazo[1,5-a]pyridine-3-carboxamide] here?
Answer: Its Kd is 3 nM.

Question: With `O=C1CC[C@H](NC(=O)c2ccc3ccccn23)C(=O)N1` [Example 52, (S)-N-(2,6-Dioxopiperidin-3-yl)indolizine-3-carboxamide] as the molecule, how does the Kd read?
Answer: Its Kd is 6 nM.

Question: With `O=C1CC[C@@H](NC(=O)c2ccc3ccccn23)C(=O)N1` [Example 53, (R)-N-(2,6-Dioxopiperidin-3-yl)indolizine-3-carboxamide] as the molecule, how does the Kd read?
Answer: The Kd was 2 nM.

Question: For `O=C1CC[C@H](NC(=O)c2cnc3ccccn23)C(=O)N1` [Example 54, (S)-N-(2,6-Dioxopiperidin-3-yl)imidazo[1,2-a]pyridine-3-carboxamide], which Kd is on record?
Answer: Its Kd is 1 nM.

Question: `O=C1CC[C@@H](NC(=O)c2cnc3ccccn23)C(=O)N1` [Example 55, (R)-N-(2,6-Dioxopiperidin-3-yl)imidazo[1,2-a]pyridine-3-carboxamide] was tested. Which Kd did it give?
Answer: The Kd was less than 1 nM.

Question: How did the Kd turn out when `O=C1CC[C@H](NC(=O)c2cnn3cccnc23)C(=O)N1` [Example 56, (S)-N-(2,6-Dioxopiperidin-3-yl)pyrazolo[1,5-a]pyrimidine-3-carboxamide] was run?
Answer: The Kd was 8 nM.

Question: `O=C1CC[C@@H](NC(=O)c2cnn3cccnc23)C(=O)N1` [Example 57, (R)-N-(2,6-Dioxopiperidin-3-yl)pyrazolo[1,5-a]pyrimidine-3-carboxamide] was tested. Which Kd did it give?
Answer: The Kd was 7 nM.

Question: `CN(C(=O)N1CCc2ccccc21)C1CCC(=O)NC1=O` (stereo not shown) [Example 58, N-(2,6-Dioxopiperidin-3-yl)-N-methylindoline-1-carboxamide] was tested. Which Kd did it give?
Answer: The Kd was 22 nM.

Question: How did the Kd turn out when `CN(C(=O)N1CCc2ccccc21)[C@H]1CCC(=O)NC1=O` [Example 59, (S)-N-(2,6-Dioxopiperidin-3-yl)-N-methylindoline-1-carboxamide] was run?
Answer: The Kd was 20 nM.

Question: How did the Kd turn out when `CN(C(=O)N1CCc2ccccc21)[C@@H]1CCC(=O)NC1=O` [Example 60, (R)-N-(2,6-Dioxopiperidin-3-yl)-N-methylindoline-1-carboxamide] was run?
Answer: Its Kd is 30 nM.

Question: With `O=C1CC[C@H](NC(=O)Cc2cccnc2)C(=O)N1` [Example 61, (S)-N-(2,6-Dioxopiperidin-3-yl)-2-(pyridin-3-yl)acetamide] as the molecule, how does the Kd read?
Answer: The Kd was 967 nM.

Question: For `CN(C(=O)N1CCc2cccnc21)C1CCC(=O)NC1=O` (stereo not shown) [Example 62, N-(2,6-Dioxopiperidin-3-yl)-N-methyl-2,3-dihydro-1H-pyrrolo[2,3-b]pyridine-1-carboxamide], which Kd is on record?
Answer: The Kd was 29 nM.

Question: With `O=C1CC[C@@H](NC(=O)Cc2cccnc2)C(=O)N1` [Example 63, (R)-N-(2,6-Dioxopiperidin-3-yl)-2-(pyridin-3-yl)acetamide] as the molecule, how does the Kd read?
Answer: Its Kd is 19 nM.
